Read-outs that look alike come from different tables or passages of the source.
Key:
L. major [1] = assay: ChEMBL dataset of pIC50 values against L. major used for the RF model (Table S1); format: cell-based, Leishmania major; further: call rule not given here
Excerpt: From the ChEMBL database (https://www.ebi.ac.uk/chembl/, accessed on 10 January 2021), we selected a diverse set of 1085 structures that were initially classified according to their predicted activity against L. major.
Excluding these structures minimized the differences in activity values resulting from errors and differences in experimental protocols. […] Standardizer software [JChem, version 16.11.28 (2016), calculation module developed by ChemAxon, https://www.chemaxon.com/, accessed on 20 January 2021] was used to canonize all simplified molecular-input line-entry system (SMILES) codes. After duplicate structures were removed, those with higher pIC50 values were eliminated, facilitating the generation of more restrictive models.

L. major [2] = system: L. major; parameters: method as in ChEMBL; details: ref ChEMBL, cited from earlier work
[3] = Active/Inactive class assigned to the ChEMBL pIC50 value for Random forest model construction, ref ChEMBL
[4] = ChemBL structures with pIC50 values used for Random forest model construction, L. major
[5] = Active/Inactive class assigned to ChemBL structures for Random forest model construction (Table S1)
[6] = ChemBL structures with pIC50 values used for Random forest model construction (Table S1)

| SMILES | Outcome (L. major [1]; [3]) | pIC50 Value (L. major [2]; [4]) | Outcome (L. major [1]; [5]) | pIC50 Value (L. major [2]; [6]) |
| --- | --- | --- | --- | --- |
| CC(=O)N1CCN(c2nnc(-c3ccc([N+](=O)[O-])s3)s2)CC1 [CHEMBL193546] | Inactive | 4.31 | – | – |
| O=[N+]([O-])c1ccc(-c2nnc(N3CCNCC3)s2)s1 [CHEMBL193685] | Inactive | 3.82 | – | – |
| O=C(c1ccccc1)N1CCN(c2nnc(-c3ccc([N+](=O)[O-])o3)s2)CC1 [CHEMBL195349] | Inactive | 4.93 | – | – |
| O=C(c1ccccc1)N1CCN(c2nnc(-c3ccc([N+](=O)[O-])s3)s2)CC1 [CHEMBL195362] | Inactive | 4.60 | – | – |
| O=[N+]([O-])c1ccc(-c2nnc(N3CCOCC3)s2)s1 [CHEMBL195645] | Inactive | 4.97 | – | – |
| O=[N+]([O-])c1ccc(-c2nnc(N3CCNCC3)s2)o1 [CHEMBL195646] | Active | 5.05 | – | – |
| c1csc(-c2nc3ccccc3[nH]2)c1 [CHEMBL201221] | – | – | Active | 5.51 |
| O=[N+]([O-])c1ccccc1-c1nc2ccccc2[nH]1 [CHEMBL209918] | – | – | Active | 5.54 |
| COc1c2c(cc(O)c1-c1c(C)cc3cccc(OC)c3c1O)C[C@H](C)N=C2C [CHEMBL221884] | Inactive | 4.48 | – | – |
| COc1cc(C)c(-c2ccc3cc(C)nc(C)c3c2O)c2cccc(O)c12 [CHEMBL222221] | Inactive | 4.49 | – | – |
| Cc1cc2ccc(-c3c(C)cc(O)c4c(O)cccc34)c(O)c2c(C)n1 [CHEMBL222338] | Inactive | 4.00 | – | – |
| COc1cc2c(c(OC)c1)C(C)=[N+](c1ccc(OC)c3c(OC)cc(C)cc13)[C@@H](C)C2.O=C([O-])C(F)(F)F [CHEMBL222358] | – | – | Active | 5.31 |
| COc1cc2c(c(OC)c1-c1c(C)cc3cccc(OC)c3c1O)C(C)=N[C@@H](C)C2 [CHEMBL222436] | Inactive | 4.00 | – | – |
| COc1cc(CO)c(-c2ccc3c(c2O)[C@@H](C)N[C@H](C)C3)c2cccc(O)c12 [CHEMBL222805] | Inactive | 4.00 | – | – |
| COc1ccc(-c2ccc3cc(C)nc(C)c3c2O)c2cc(C)cc(OC)c12 [CHEMBL224952] | Inactive | 4.00 | – | – |
| CCOC(=O)C1=C(C)NC(=S)NC1c1cccc(O)c1 (stereo not shown) [CHEMBL236789] | – | – | Active | 5.65 |
| CC(=O)CCCCCCCCCCCC[C@H]1CC[C@@H](O)[C@@H](C)N1 [CHEMBL249464] | Inactive | 4.12 | – | – |
| COC(=O)C1=C(C)NC(C)=C(C(=O)OC(C)(C)CN(C)CCC(c2ccccc2)c2ccccc2)C1c1cccc([N+](=O)[O-])c1 (stereo not shown) [CHEMBL250270] | Inactive | 4.94 | – | – |
| C=CCOc1ccc(C(=O)/C=C/c2ccc(OC)cc2OC)cc1 [CHEMBL253672] | – | – | Active | 5.40 |
| CC1=CCC[C@@]2(C)CC3=C(C[C@@H]12)C(=O)C=CC3=O [CHEMBL255103] | Inactive | 4.77 | – | – |

| SMILES | Outcome (L. major [1]; [3]) | pIC50 Value (L. major [2]; [4]) | Outcome (L. major [1]; [5]) | pIC50 Value (L. major [2]; [6]) |
| --- | --- | --- | --- | --- |
| CC1=C2C(=O)c3c(O)ccc(O)c3CC2(C)CCC1=O (stereo not shown) [CHEMBL255104] | Inactive | 3.52 | – | – |
| CC1(O)CCCC2(C)Cc3c(O)ccc(O)c3CC12 (stereo not shown) [CHEMBL255315] | Inactive | 4.99 | – | – |
| C/C(C=O)=C\CCC(C)(O)/C=C\c1cc(O)ccc1O (stereo not shown) [CHEMBL255316] | Inactive | 4.04 | – | – |
| CC1=C2C(=O)c3c(OC(=O)c4ccc(Br)cc4)ccc(OC(=O)c4ccc(Br)cc4)c3CC2(C)CCC1=O (stereo not shown) [CHEMBL255868] | Inactive | 4.43 | – | – |
| CC(=O)Oc1ccc(OC(C)=O)c2c1CC1(C)CCC(=O)C(C)=C1C2=O (stereo not shown) [CHEMBL255869] | Inactive | 3.65 | – | – |
| C=C[C@@]1(C)CC2=C(C[C@H]1C(=C)C)C(O)C=CC2O (stereo partly shown) [CHEMBL257133] | Inactive | 4.74 | – | – |
| C/C(C=O)=C\CC/C(C)=C/Cc1cc(O)ccc1O [CHEMBL257343] | Inactive | 4.57 | – | – |
| C[C@@H]1[C@H](O)[C@@H](C)/C=C/C=C/C=C/C=C/C=C/C=C/C=C/[C@H](O[C@@H]2O[C@H](C)[C@@H](O)[C@H](N)[C@@H]2O)C[C@@H]2O[C@](O)(C[C@@H](O)C[C@@H](O)[C@H](O)CC[C@@H](O)C[C@@H](O)CC(=O)O[C@H]1C)C[C@H](O)[C@H]2C(=O)O [CHEMBL267345] | Inactive | 3.27 | – | – |
| C[C@@H]1CC[C@H]2[C@@H](C)C(=O)O[C@@H]3O[C@@]4(C)CC[C@@H]1[C@]32OO4 [CHEMBL269671] | – | – | Active | 6.12 |
| Nc1ccc(Nc2c3ccccc3nc3ccccc23)cc1 [CHEMBL289352] | – | – | Active | 5.68 |
| O=C(CCl)N1c2ccccc2Sc2ccc(Cl)cc21 [CHEMBL290253] | Inactive | 4.98 | – | – |
| CN(C)Cc1ccc(Nc2c3ccccc3nc3ccccc23)cc1 [CHEMBL290441] | – | – | Active | 6.00 |
| CCCCCCNc1ccc(Nc2c3ccccc3nc3ccccc23)cc1 [CHEMBL299581] | – | – | Active | 6.26 |
| CCCCN(CCCC)c1ccc(Nc2c3ccccc3nc3ccccc23)cc1 [CHEMBL312941] | – | – | Active | 6.46 |
| CCCCCCN(C)c1ccc(Nc2c3ccc(Cl)cc3nc3ccc(OC)cc23)cc1 [CHEMBL315133] | – | – | Active | 5.74 |
| CCN(CC)c1ccc(Nc2c3ccccc3nc3ccccc23)cc1 [CHEMBL315530] | – | – | Active | 6.40 |
| CCCCCCCc1ccc(Nc2c3ccccc3nc3ccccc23)cc1 [CHEMBL316058] | – | – | Active | 6.10 |
| O=[N+]([O-])c1ccc2ncnc(Nc3cccc(Br)c3)c2c1 [CHEMBL329161] | Active | 5.04 | – | – |
| CN(C)c1ccc(Nc2c3ccc(NC(=O)CCN4CCCC4)cc3nc3cc(NC(=O)CCN4CCCC4)ccc23)cc1 [CHEMBL336434] | Inactive | 4.90 | – | – |
| O=[N+]([O-])c1ccc(-c2nnc(N3CCOCC3)s2)o1 [CHEMBL365770] | Active | 5.28 | – | – |

| SMILES | Outcome (L. major [1]; [3]) | pIC50 Value (L. major [2]; [4]) | Outcome (L. major [1]; [5]) | pIC50 Value (L. major [2]; [6]) |
| --- | --- | --- | --- | --- |
| NC[C@@H]1O[C@H](O[C@H]2[C@@H](O)[C@H](O[C@@H]3[C@@H](O)[C@H](N)C[C@H](N)[C@H]3O[C@H]3O[C@H](CO)[C@@H](O)[C@H](O)[C@H]3N)O[C@@H]2CO)[C@H](N)[C@@H](O)[C@@H]1O [CHEMBL370143] | Inactive | 4.00 | – | – |
| CN1CCN(c2nnc(-c3ccc([N+](=O)[O-])s3)s2)CC1 [CHEMBL371217] | Inactive | 3.99 | – | – |
| CN1CCN(c2nnc(-c3ccc([N+](=O)[O-])o3)s2)CC1 [CHEMBL372024] | Active | 5.14 | – | – |
| O=[N+]([O-])c1ccc(-c2nnc(N3CCCCC3)s2)o1 [CHEMBL372172] | – | – | Active | 5.49 |
| COc1cc(C)c(-c2ccc(O)c3c2C[C@@H](C)N[C@@H]3C)c2cccc(O)c12 [CHEMBL375542] | Inactive | 4.44 | – | – |
| Oc1ccc(-c2nc3ccccc3[nH]2)cc1 [CHEMBL377740] | – | – | Active | 5.36 |
| COc1ccc(-c2nc3ccccc3[nH]2)cc1 [CHEMBL379179] | – | – | Active | 5.44 |
| c1ccc2[nH]c(-c3ccncc3)nc2c1 [CHEMBL379376] | – | – | Active | 5.35 |
| O=[N+]([O-])c1ccc2nc(-c3ccccn3)[nH]c2c1 [CHEMBL380979] | – | – | Active | 5.52 |
| O=[N+]([O-])c1ccc(-c2nnc(N3CCN(c4ccccc4)CC3)s2)s1 [CHEMBL382933] | Inactive | 3.98 | – | – |
| COc1cc(OC)c(-c2ccc(OC)c3c(OC)cc(C)cc23)c2c1C(C)=N[C@@H](C)C2 [CHEMBL390586] | Inactive | 4.00 | – | – |
| CC(C)(C)OC(=O)N1CCN(c2cc(-c3ccc(Oc4ccccc4)cc3)n[nH]2)CC1 [CHEMBL394241] | Inactive | 4.89 | – | – |
| C=C[C@@]1(C)CC2=C(C[C@H]1C(=C)C)C(=O)C=CC2=O [CHEMBL401583] | Inactive | 4.06 | – | – |
| C=C1CCC[C@@]2(C)CC3=C(C[C@@H]12)C(=O)C=CC3=O [CHEMBL401659] | Inactive | 4.99 | – | – |
| COc1cccc2c(-c3ccc4c(c3O)[C@@H](C)N[C@H](C)C4)c(C)cc(OC)c12 [CHEMBL410597] | Inactive | 4.33 | – | – |
| CNc1ccc(Nc2c3ccccc3nc3ccccc23)cc1 [CHEMBL415467] | – | – | Active | 5.82 |
| CCCCCCN(C)c1ccc(Nc2c3ccccc3nc3ccccc23)cc1 [CHEMBL415472] | – | – | Active | 6.52 |
| CCCCCCNc1ccc(Nc2c3ccc(Cl)cc3nc3ccc(OC)cc23)cc1 [CHEMBL420434] | – | – | Active | 6.70 |
| COc1cc2c(c(OC)c1)C(C)=[N+](c1ccc3cc(C)cc(OC)c3c1O)[C@@H](C)C2.O=C([O-])C(F)(F)F [CHEMBL426747] | – | – | Active | 5.91 |

— article PMC8196580, “Identification of Kaurane-Type Diterpenes as Inhibitors of Leishmania Pteridine Reductase I” (Molecules, 2021)
